Tests used:
[1] = Apparent permeability from apical to basolateral side of MDCK cells at 2 uM by LC-MS/MS analysis; format: ADME, cell-based, Canis lupus familiaris; details: dog
[2] = Apparent permeability from basolateral to apical side of MDCK cells at 2 uM by LC-MS/MS analysis; format: ADME, cell-based, Canis lupus familiaris; details: dog

Row | Papp A→B at 2 µM [1] [×10⁻⁶ cm/s] | Papp B→A at 2 µM [2] [×10⁻⁶ cm/s] | Compound
1 | 3 | 2 | CC(C)CN(Cc1ccc(-c2ccc(S(C)(=O)=O)cc2)cc1)S(=O)(=O)Cc1ccccc1
2 | 24 | 24 | CC(=O)N1CCN(c2ccc(CN(C3CCC3)S(=O)(=O)Cc3ccccc3)cc2)CC1

Reference: ChEMBL document CHEMBL3352759, “Reduction in lipophilicity improved the solubility, plasma-protein binding, and permeability of tertiary sulfonamide RORc inverse agonists” (Bioorg Med Chem Lett, 2014)
